For series [1], the system named is V. harveyi strain MM32 (luxN− luxS−). Kind of series: V. harveyi autoinducer bioassay (light emission). The conditions noted are these: for activity compared with enzymatically prepared DPD in the V. harveyi bioassay: equal concentration, 0.5 M potassium phosphate buffer, pH 7.3. It is filed as cell-based. Here is the method: (§1) V. harveyi strain MM32 (luxN^− luxS^−) was grown overnight and subsequently diluted 5.000-fold in AB growth medium. This bioassay was performed as developed by the method of Schauder et. al. (2001). To 90 μL of diluted cells ,10 μL of various compounds were added, and the resulting cultures were further incubated in a 96-well microtiter dish at 30° C. for approximately 6 h. The concentration of crude DPD was calculated by measuring the amount of homocysteine released in an Ellman's test. Light emission was measured using a Wallac model 1450 microbeta Plus scintillation counter.
A. Comparative bioactivity of enzymatically-produced DPD, synthetic DPD and synthetic ent-DPD. Each of these three compounds and a blank were assessed in the above bioassay at equal concentrations. The bio assays were conducted with a dilution of 0.53 mM enzymatically-produced DPD, a dilution of 5.0 mM synthetic DPD or a dilution of 5.0 mM ent-DPD.

A short description of series [2]: 11B NMR DPD-borate binding study. The format is physicochemical. The conditions noted are these: 100 μM DPD in 400 μM B(OH)3, pH 7.5. Here is the method:
To explore the binding of DPD with borate under conditions that more closely resemble those in the natural habitat of V. harveyi and to correlate this study with previous work using DPD produced in vivo and released from the V. harveyi receptor protein, LuxP, the ^11B NMR spectrum of a 100 μM DPD solution in 400 μM B(OH)3 (Dickson et al. 1990) at pH 7.5 was recorded. […] Based on the ratio of integrals for the B(OH)3 peak and the DPD:borate peak, the concentration of DPD:borate complex was calculated to be ca 10 μM. consistent with ca 10% DPD bound at this dilution. We were unable to observe conclusively the presence of complexes with a 2:1 DPD:borate stoichiometry due to sensitivity limitations of the ^11B NMR experiment, although a peak with a S/N of 2 was recorded at δ 9.8 ppm.
To explore further the ability of DPD to complexborate at more physiologically relevant concentrations, a mixture of 10 μL of 40 mM B(OH)3, […] of 10 mM DPD, 100 μL of 1 M potassium phosphate buffer (pH 7), 200 μL of sat. NaHCO3 and 680 μL of D2O was produced to generate a 100 μM DPD solution in 400 μM B(OH)3, at pH 7.5. This solution was then analyzed by ^11B NMR to determine binding, as discussed in the Detailed Description of the Invention.

A short description of series [3]: Stability of DPD in aqueous solution monitored by 1H NMR. It is filed as physicochemical. As for the experimental part: Synthetically-produced DPD was stable under acidic conditions; a 30 mM sample of the molecule was monitored for decomposition via ^1H NMR for 5 h at 20° C. and pH 1.5. […] The purity of the synthetic DPD was further established by reaction with o-phenylenediamine to produce (S)-1-(3-methylquioxalin-2-yl)-ethane-1,2-diol in >98% purity.
To a suspension of 11 (9.6 mg, […]) in D2O) (1.5 mL) was added conc. D2SO4 (1.5 μL, final pD1.5). The reaction was allowed to continue for 5 h and was monitored by ^1H NMR. A ^1H-^1H DQCOSY spectrum was recorded at the 5-h time point to help establish the identity of each ^1H signal. […] The extra signals in the region form 1.35-1.45 ppm and 3.4-4.6 ppm are most likely due to a small amount of 1 that is not hydrated at C3. This hypothesis is supported by the complete disappearance of these peaks upon addition of 1,2-phenylenediamine (see Example 13)

Series [4] deals with V. harveyi strain MM32 (luxN− luxS−). Kind of series: Effects of low pH on DPD bioactivity (V. harveyi bioassay after acid treatment). It is filed as cell-based. As for the experimental part:
as §1
B. Effects of low pH on enzmmatically-produced DPD bioactivity. Enzymatically produced DPD (0.53 mM stock concentration) was mixed with sulfuric or hydrochloric acid at a ratio of 1 μL H2SO4 or 5 μL HCl to 250 μL DPD, resulting in solutions with a pH of 1.5 (with H2SO4) or 2 (with HCl). At times indicated, 1 M Tris pH 8.5 was added to restore the pH to neutral and bioactivity was determined. […] Similar results were obtained after exposure to H2SO4 (not shown).
C. Effects of low pH on synthetic DPD bioactivity. Synthetically-produced DPD (100 mM stock concentration) was mixed with H2SO4 at a ratio of 1 μL H2SO4 to 250 μL DPD, resulting in solutions with a pH of 1.3. After 16 h, 1 M Tris pH 8.5 was added at a ratio of 5 μL buffer to 20 uL DPD solution to restore the pH to 7.5.

The test system of series [5] is cell growth. The series is described as follows: Cell growth inhibition by deprotection by-product. The format is cell-based. The conditions noted are these: concentrations under 1 M.

With `CC(=O)C(=O)C(O)CO` (stereo not shown) [DPD, 4,5-dihydroxypentane-2,3-dione], the “activity in the V. harveyi autoinducer-bioassay” value in series [1] (deprotection solution with excess borate at pH 7.8, without further purification) was “active”. Also, the figures for the “activity compared with enzymatically prepared DPD in the V. harveyi bioassay” value in series [1] and in series [1] (listed as synthetic DPD) were “equal” and “equal in activity”, respectively. Moreover, the “DPD bound to borate” value in series [2] is recorded as approximately 10%. Further, the “concentration of DPD:borate complex” value in series [2] (from ratio of 11B NMR integrals) was approximately 10 µM. Besides, the “decomposition under acidic conditions by 1H NMR” value in series [3] (30 mM, 5 h at 20° C., pH 1.5) was “no decomposition products were observed”. The “stability at basic pH” value in series [3] (pH>8, unless bound to borate) is given as “less stable”. In series [4] (pH 1.5-2, dilute aqueous solution, 16 h at 20° C., DPD at least 30 mM and up to 100 mM), the “change in bioactivity after storage under acidic conditions” value is recorded as “no significant decrease in bioactivity”. Besides, the “effect of acid treatment on autoinducer activity” value was “no loss in activity” in series [4] (synthetic, 100 mM, pH 1.3, 16 h, 20° C., listed as Synthetically-produced DPD) and “did not change the auto inducer activity” in series [4] (synthetic, 100 mM, pH 1.3, 16 h, 20° C., listed as synthetic DPD).
With `CC(=O)C(=O)[C@H](O)CO` [Ent-DPD], the “activity relative to DPD (1) in the V. harveyi bioassay” value in series [1] is listed as 1%.
For the compound `O=C1CCCCC1` [cyclohexanone], the “inhibition of cell growth” value in series [5] is given as “does not inhibit cell growth”.
For `CC(=O)C(=O)C(O)CO` (stereo not shown) [enzymatically-produced DPD, 4,5-dihydroxypentane-2,3-dione, reference compound], in series [4] (enzymatically produced, 0.53 mM stock, pH 1.5 (H2SO4) or 2 (HCl), up to 16 h), the “effect of acid treatment on autoinducer activity” value is “did not affect the autoinducer activity”.

Values taken from US7652172B2, “Expeditious synthesis of DPD” (The Trustees of Princeton University, priority 2004, dated 2010).
